Data published in publication PMC9027920, “Development of New Thiophene-Containing Triaryl Pyrazoline Derivatives as PI3Kγ Inhibitors” (Molecules, 2022).

Legend:
[1] = cytotoxicity, MTT, L02 cells; format: cell-based; details: human, L02 cells (human normal hepatocyte line)
Protocol: (§1) In this section, the anti-proliferation activity of the synthesized compounds 3a–3t was evaluated. Herein, HeLa (human epithelial cervical cancer cell line), HepG2 (human hepatoellular carcinoma cell line) and L02 (human normal hepatocyte line) cells were used. According to the affection on L02 cells, most of the tested compounds were low-toxic. […] Basically, many of the compounds in this series could inhibit the growth of HeLa and HepG2 cells effectively. The anti-proliferation inhibitory activity and the enzymatic inhibition potency indicated the consistent tendencies; the SAR of the observed anti-proliferation activity was also similar to that of the enzymatic inhibition, especially that of PI3Kγ inhibition; thus, the cellular inhibition might be caused by the effect on PI3K. […] Thus, HepG2 cells were selected to conduct further investigations at the protein level.
(§2) In this section, the cells included HeLa (human epithelial cervical cancer cell line), HepG2 (human hepatocellular cancer cell line) and L02 (human normal hepatocyte line) to evaluate the anti-proliferation activity of the synthesized compounds. The cells were cultured in Dulbecco’s modified eagle medium (DMEM, Hyclone) with the addition of 10% fetal bovine serum (FBS, BI), 2 mmol/L L-glutamine, 100 units/mL penicillin-streptomycin (Sigma-Aldrich, Saint Louis, MO, USA), […] (Hyclone, Logan, UT, USA). The environment was 5% CO2 contained atmosphere at 37 °C. The tests of anti-proliferative activity were conducted under a standard method with the typical dye 3-(4,5-dimethylthiazol-2-yl)-2,5-diphenyltetrazolium bromide (MTT) in triplicate. The LX300 Epson Diagnostic micro-plate reader (Nagano, Japan) was used to record the absorbance at 570 nm (OD570).

[2] = test system: HeLa (human epithelial cervical cancer cell line) cells; experiment: anti-proliferation assay, MTT, HeLa cells; format: cell-based
Protocol: as §1, §2

PI3Kγ = target: T1, PI3Kγ (Homo sapiens, UniProt P48736); experiment: competitive fluorescence polarization kinase activity assay, PI3Kγ; format: biochemical; details: fluorescence polarization kinase kit
T1 construct: purchased Perkin–Elmer
T1 sequence (P48736 whole entry, species assumed): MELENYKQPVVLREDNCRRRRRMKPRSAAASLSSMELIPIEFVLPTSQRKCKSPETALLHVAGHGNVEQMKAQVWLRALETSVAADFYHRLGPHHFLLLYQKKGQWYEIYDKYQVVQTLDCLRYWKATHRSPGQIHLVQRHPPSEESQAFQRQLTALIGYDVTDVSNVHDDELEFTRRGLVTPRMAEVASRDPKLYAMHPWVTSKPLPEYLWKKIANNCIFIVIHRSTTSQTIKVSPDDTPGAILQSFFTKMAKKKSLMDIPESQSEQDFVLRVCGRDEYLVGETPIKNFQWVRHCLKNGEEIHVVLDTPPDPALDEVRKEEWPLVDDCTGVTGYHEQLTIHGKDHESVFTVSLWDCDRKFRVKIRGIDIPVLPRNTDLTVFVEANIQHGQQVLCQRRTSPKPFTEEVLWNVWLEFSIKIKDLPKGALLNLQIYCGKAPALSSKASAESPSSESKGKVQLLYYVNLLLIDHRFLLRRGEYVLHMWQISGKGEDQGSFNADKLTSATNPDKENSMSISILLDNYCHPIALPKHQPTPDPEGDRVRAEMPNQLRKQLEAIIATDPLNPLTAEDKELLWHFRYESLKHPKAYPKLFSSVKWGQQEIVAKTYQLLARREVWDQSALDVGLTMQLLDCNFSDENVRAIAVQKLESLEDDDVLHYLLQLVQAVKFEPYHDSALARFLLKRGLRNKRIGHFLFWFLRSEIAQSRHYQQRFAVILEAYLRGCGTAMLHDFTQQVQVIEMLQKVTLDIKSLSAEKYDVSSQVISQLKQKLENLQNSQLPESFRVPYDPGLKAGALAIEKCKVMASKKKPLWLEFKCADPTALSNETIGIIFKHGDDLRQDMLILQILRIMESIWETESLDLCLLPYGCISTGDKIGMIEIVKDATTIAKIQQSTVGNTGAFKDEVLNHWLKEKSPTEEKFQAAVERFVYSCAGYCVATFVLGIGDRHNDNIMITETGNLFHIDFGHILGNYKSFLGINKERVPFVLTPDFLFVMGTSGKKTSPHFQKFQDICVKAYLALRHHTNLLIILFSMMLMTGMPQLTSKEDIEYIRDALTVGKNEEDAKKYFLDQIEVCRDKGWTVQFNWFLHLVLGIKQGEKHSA
Text: (§3) Initially, we directly tested the inhibition potency of the synthesized compounds on PI3K by using competitive fluorescence polarization kinase kits, as mentioned in previous investigations. […] According to the significance and research maturity of the isoforms as referenced, the PI3Kα and PI3Kγ isoforms were preliminarily included here.
(§4) The competitive fluorescence polarization kinase activity assay was used to test the inhibition potency on PI3K, as mentioned in previous investigations. In general, following the instruction of the Kit (Perkin–Elmer, Waltham, MA, USA), the 10 μL scale of PI3K activity reaction was conducted with the substrate diC8-PI(4,5)P2 in a solution containing 2.5 mM MgCl2, 5 mM HEPES, […] and 10 mM DTT at pH 7.0. Into the 10 μL reaction wells with 50 ng enzyme and […], different concentrations of the tested compounds were added, respectively. The mixture was incubated at room temperature for 3 h, and the reactions were then quenched. Afterwards, the phosphoinositide binding protein and the fluorescent dye-labeled phosphoinositide tracer were added in sequence. In the dark environment in 384-well black nonbinding plates (Corning, Corning, NY, USA), the further incubation lasted for 1 h. With appropriate filters, the polarization values of the corresponding dye were recorded to calculate the enzymatic activity of PI3K in this reacting procedure. This assay was universal for evaluating the activity of different PI3K isoforms.

PI3Kα = target: T2, PI3Kα (Homo sapiens, UniProt P42336); experiment: competitive fluorescence polarization kinase activity assay, PI3Kα; format: biochemical; details: fluorescence polarization kinase kit
T2 construct: purchased Perkin–Elmer
T2 sequence (P42336 whole entry, species assumed): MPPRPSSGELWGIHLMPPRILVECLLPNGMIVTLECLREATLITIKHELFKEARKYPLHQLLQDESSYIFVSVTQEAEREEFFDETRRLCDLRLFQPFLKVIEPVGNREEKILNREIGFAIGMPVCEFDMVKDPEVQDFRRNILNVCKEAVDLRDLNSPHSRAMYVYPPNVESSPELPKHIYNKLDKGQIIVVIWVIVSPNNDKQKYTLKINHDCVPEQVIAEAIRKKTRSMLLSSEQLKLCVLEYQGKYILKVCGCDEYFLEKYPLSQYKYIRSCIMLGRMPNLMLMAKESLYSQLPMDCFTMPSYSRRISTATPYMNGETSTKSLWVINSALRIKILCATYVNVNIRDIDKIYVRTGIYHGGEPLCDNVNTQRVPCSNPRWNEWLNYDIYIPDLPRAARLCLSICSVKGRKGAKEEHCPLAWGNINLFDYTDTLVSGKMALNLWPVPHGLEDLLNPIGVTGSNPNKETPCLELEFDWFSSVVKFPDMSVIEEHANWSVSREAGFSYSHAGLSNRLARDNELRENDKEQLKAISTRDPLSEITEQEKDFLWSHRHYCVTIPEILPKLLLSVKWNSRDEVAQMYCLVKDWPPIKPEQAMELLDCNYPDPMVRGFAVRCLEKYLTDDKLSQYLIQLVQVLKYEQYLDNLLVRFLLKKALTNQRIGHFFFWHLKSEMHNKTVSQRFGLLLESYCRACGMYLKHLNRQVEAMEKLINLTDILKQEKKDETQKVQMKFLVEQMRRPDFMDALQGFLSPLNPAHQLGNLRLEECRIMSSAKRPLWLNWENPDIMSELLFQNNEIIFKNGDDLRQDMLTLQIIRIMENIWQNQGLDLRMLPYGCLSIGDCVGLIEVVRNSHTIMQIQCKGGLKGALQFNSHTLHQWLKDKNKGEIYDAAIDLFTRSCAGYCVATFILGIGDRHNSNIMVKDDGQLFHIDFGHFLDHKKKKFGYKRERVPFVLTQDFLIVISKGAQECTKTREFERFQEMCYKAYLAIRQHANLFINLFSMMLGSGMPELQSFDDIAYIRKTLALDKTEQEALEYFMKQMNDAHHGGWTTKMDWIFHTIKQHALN
T2 sequence (P27986 whole entry partner, species assumed): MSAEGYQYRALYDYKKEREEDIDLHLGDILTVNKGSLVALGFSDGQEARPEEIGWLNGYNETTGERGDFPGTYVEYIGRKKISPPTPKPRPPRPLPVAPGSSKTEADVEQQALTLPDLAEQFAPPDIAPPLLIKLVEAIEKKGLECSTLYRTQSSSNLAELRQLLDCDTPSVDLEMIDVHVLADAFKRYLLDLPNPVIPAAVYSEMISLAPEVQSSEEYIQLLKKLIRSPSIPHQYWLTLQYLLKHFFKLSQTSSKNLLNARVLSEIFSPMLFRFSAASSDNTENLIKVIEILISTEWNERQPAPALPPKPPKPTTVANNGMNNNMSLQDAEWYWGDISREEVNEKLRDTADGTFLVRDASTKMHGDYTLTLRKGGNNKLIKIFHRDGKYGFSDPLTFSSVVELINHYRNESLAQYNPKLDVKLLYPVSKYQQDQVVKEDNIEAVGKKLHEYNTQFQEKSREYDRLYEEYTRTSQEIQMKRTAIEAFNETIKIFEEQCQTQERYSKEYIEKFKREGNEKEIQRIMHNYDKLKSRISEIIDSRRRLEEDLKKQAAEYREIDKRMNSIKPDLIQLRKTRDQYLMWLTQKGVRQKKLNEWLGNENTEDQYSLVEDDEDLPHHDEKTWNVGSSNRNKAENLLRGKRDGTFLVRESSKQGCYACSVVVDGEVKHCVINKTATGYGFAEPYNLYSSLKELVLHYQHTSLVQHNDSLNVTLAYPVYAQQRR
Text: as §3, §4

[3] = test system: HepG2 (human hepatocellular cancer cell line) cells; experiment: anti-proliferation assay, MTT, HepG2 cells; format: cell-based; details: read-out: GI50 HepG2γ
Protocol: as §1, §2

SMILES	melting point [°C]	GI50 [2] [µM]	IC50 (PI3Kγ) [µM]	IC50 (PI3Kα) [µM]	GI50 [3] [µM]	CC50 [1] [µM]
COc1ccc(C(=O)N2N=C(c3ccccc3F)CC2c2cccs2)cc1OC (stereo not drawn) [3b, (3,4-Dimethoxyphenyl)(3-(2-fluorophenyl)-5-(thiophen-2-yl)-4,5-dihydro-1H-pyrazol-1-yl)methanone]	118 to 120	77.9 ± 3.9	4.43 ± 0.2	> 100	50.2 ± 1.6	152 ± 9.5
COc1ccc(C(=O)N2N=C(c3ccc(Br)cn3)CC2c2cccs2)cc1OC (stereo not drawn) [3t, (3-(5-Bromopyridin-2-yl)-5-(thiophen-2-yl)-4,5-dihydro-1H-pyrazol-1-yl)(3,4-dimethoxyphenyl)methanone]	77 to 79	124 ± 9.7	9.15 ± 0.14	> 100	110 ± 8.1	> 300
COc1ccc(C(=O)N2N=C(c3ccc(OCc4ccccc4)cc3)CC2c2cccs2)cc1OC (stereo not drawn) [3g, (3-(4-(Benzyloxy)phenyl)-5-(thiophen-2-yl)-4,5-dihydro-1H-pyrazol-1-yl)(3,4-dimethoxyphenyl)methanone]	60 to 62	31.6 ± 0.9	26.9 ± 1.4	0.92 ± 0.056	31.6 ± 1.4	104 ± 5.4
COc1ccc(C(=O)N2N=C(c3cccc([N+](=O)[O-])c3)CC2c2cccs2)cc1OC (stereo not drawn) [3e, (3,4-Dimethoxyphenyl)(3-(3-nitrophenyl)-5-(thiophen-2-yl)-4,5-dihydro-1H-pyrazol-1-yl)methanone]	76 to 78	5.9 ± 0.2	1.12 ± 0.081	2.08 ± 0.099	5.51 ± 0.2	58.4 ± 2.6
O=c1cc(N2CCOCC2)oc2c(-c3ccccc3)cccc12 [LY294002, reference compound]		21.1 ± 2			26.5 ± 1.9	51.3 ± 1.4
COc1ccc(C(=O)N2N=C(c3ccc(I)cc3)CC2c2cccs2)cc1OC (stereo not drawn) [3m, (3,4-Dimethoxyphenyl)(3-(4-iodophenyl)-5-(thiophen-2-yl)-4,5-dihydro-1H-pyrazol-1-yl)methanone]	69 to 71	57.9 ± 3.6	2.52 ± 0.055	75.6 ± 2.4	40.1 ± 1.4	141 ± 5.6
COc1ccc(C(=O)N2N=C(c3ccc(C)c(C)c3)CC2c2cccs2)cc1OC (stereo not drawn) [3r, (3,4-Dimethoxyphenyl)(3-(3,4-dimethylphenyl)-5-(thiophen-2-yl)-4,5-dihydro-1H-pyrazol-1-yl)methanone]	104 to 106	6.2 ± 0.22	1.37 ± 0.055	4.13 ± 0.062	5.55 ± 0.41	52.5 ± 3.2

More lines, in order of falling GI50 [2], values ahead:

melting point [°C]	GI50 [2] [µM]	IC50 (PI3Kγ) [µM]	IC50 (PI3Kα) [µM]	GI50 [3] [µM]	SMILES	CC50 [1] [µM]
165 to 167	66.6 ± 1.2	3.03 ± 0.085	89.5 ± 3.4	48.7 ± 1.8	COc1ccc(C(=O)N2N=C(c3ccc(C)cc3)CC2c2cccs2)cc1OC (stereo not drawn) [3i, (3,4-Dimethoxyphenyl)(5-(thiophen-2-yl)-3-(p-tolyl)-4,5-dihydro-1H-pyrazol-1-yl)methanone]	151 ± 8.9
71 to 73	20.1 ± 1.7	5.11 ± 0.083	17.1 ± 0.58	15.5 ± 0.87	COc1ccc(C(=O)N2N=C(c3ccc(Br)cc3)CC2c2cccs2)cc1OC (stereo not drawn) [3l, (3-(4-Bromophenyl)-5-(thiophen-2-yl)-4,5-dihydro-1H-pyrazol-1-yl)(3,4-dimethoxyphenyl)methanone]	86.6 ± 3.5
74 to 76	6.81 ± 0.24	3.76 ± 0.19	0.56 ± 0.045	6.31 ± 0.54	COc1ccc2cc(C3=NN(C(=O)c4ccc(OC)c(OC)c4)C(c4cccs4)C3)ccc2c1 (stereo not drawn) [3p, (3-(6-((λ1-Oxidanyl)-λ^5-methyl)naphthalen-2-yl)-5-(thiophen-2-yl)-4,5-dihydro-1H-pyrazol-1-yl)(3,4-dimethoxyphenyl)methanone]	67.1 ± 3.9
